{
  "source": "patent US10851084B2",
  "about": "“Piperazine derivatives as TRPML modulators” (CalyGene Biotechnology, Inc., priority 2016, dated 2020)",
  "key": {"TFEB": {"tested_on": "TFEB", "experiment": "TFEB nuclear translocation assay", "type": "cell-based", "conditions": "HEK293 cells stably expressing GFP-TFEB; dose-dependent, FIG. 2", "procedure": "TFEB is a transcription factor and master regulator of lysosome biogenesis and autophagy. TFEB activation is shown to induce cellular clearance in a variety of LSDs and common neurodegenerative diseases.\nIntracellular TFEB localization is determined either by immunofluorescence in Hela cells or by fluorescent microscopy in Hela cells stably expressing TFEB-GFP. Detailed procedures are as follows.\nCells grown on cover slips were treated with TRPML1 agonist(s) or antagonist(s) for indicated time period and then fixed with 4% paraformaldehyde for 15 minutes at room temperature. For immunofluorescent detection of endogenous TFEB, cells were permeabilized with 0.3% Triton X-100, blocked with 1% bovine serum albumin (BSA) in phosphate buffered saline (PBS) and then immunostained with anti-TFEB antibody (1:200; Cell Signaling Technology) at 4° C. for overnight. The stained cells were then incubated with secondary antibodies conjugated to Alexa Fluor 568 or 488 (ThermoFisher) for 1 h, then 4′,6-diamidino-2-phenylindole (DAPI) for 15 minutes (to stain the cell nucleus) and mounted on glass slides with Fluoromount-G (Southern Biotech) for observation. […]\nAverage ratios of nuclear versus cytosolic TFEB fluorescence intensity (>50 randomly-selected cells per experiment) were determined with ImageJ software (NIH)."}, "HaCat cells": {"tested_on": "HaCat cells", "experiment": "UV treatment and ROS staining", "type": "cell-based, human", "conditions": "600 J/m^2 UV (254 nm), H2DCFDA, FIG. 3", "procedure": "HaCat cells (a human keratinocyte cell line) at a confluency of around 50% were incubated with 20 µM H2DCFDA (Sigma) in the culture media without FBS at 37° C. for 30 min, and then washed twice with phosphate buffered saline (PBS, pH 7.4) before being exposed to UV. A CL-1000 UV Crosslinker (UVP) is used to shed 600 J/m^2 of UV light (254 nm) on the HaCat cells in all experiments. Fluorescent images were obtained right after UV exposure, via an Olympus IX73 microscopy (Olympus) and Metamorph software (Molecular Devices)."}, "TRPMLs": {"tested_on": "TRPMLs", "conditions": "cited from earlier work"}, "[1]": {"tested_on": "six other related channels", "conditions": "cited from earlier work"}, "[2]": {"biological_target": "T1, endogenous whole-endolysosome TRPML-like current (IML-L) (Homo sapiens, UniProt Q9GZU1)", "T1 construct": "host or cells: endogenous in human fibroblasts (WT and ML4); also CHO, Cos-1, HEK293, skeletal muscle, pancreatic β and macrophage cells", "T1 sequence (Q9GZU1 whole entry)": "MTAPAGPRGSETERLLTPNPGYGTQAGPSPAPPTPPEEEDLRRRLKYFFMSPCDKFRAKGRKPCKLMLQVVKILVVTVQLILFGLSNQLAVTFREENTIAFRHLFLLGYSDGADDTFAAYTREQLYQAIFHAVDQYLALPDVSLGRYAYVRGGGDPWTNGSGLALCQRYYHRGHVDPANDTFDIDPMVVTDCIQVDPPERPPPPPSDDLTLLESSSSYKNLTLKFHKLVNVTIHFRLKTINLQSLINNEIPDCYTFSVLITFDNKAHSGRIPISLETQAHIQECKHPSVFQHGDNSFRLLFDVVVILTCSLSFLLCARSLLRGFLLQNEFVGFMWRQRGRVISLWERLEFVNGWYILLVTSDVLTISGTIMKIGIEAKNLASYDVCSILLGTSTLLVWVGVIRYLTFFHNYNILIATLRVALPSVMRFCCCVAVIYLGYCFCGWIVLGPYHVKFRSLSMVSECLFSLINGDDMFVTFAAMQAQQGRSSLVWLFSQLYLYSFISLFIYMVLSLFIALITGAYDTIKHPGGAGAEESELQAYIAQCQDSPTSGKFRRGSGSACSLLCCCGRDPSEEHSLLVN", "conditions": "wild-type (WT; ML1+/+) human fibroblasts; cited from earlier work"}, "[3]": {"tested_on": "endogenous whole-endolysosome TRPML-like current (IML-L)", "conditions": "cited from earlier work"}, "ML1-4A": {"tested_on": "ML1-4A", "conditions": "HEK293 cells stably or transiently expressing ML1-4A; cited from earlier work"}, "TRPML2": {"biological_target": "T2, TRPML2 (Homo sapiens, UniProt Q8IZK6)", "T2 sequence (Q8IZK6 1-566)": "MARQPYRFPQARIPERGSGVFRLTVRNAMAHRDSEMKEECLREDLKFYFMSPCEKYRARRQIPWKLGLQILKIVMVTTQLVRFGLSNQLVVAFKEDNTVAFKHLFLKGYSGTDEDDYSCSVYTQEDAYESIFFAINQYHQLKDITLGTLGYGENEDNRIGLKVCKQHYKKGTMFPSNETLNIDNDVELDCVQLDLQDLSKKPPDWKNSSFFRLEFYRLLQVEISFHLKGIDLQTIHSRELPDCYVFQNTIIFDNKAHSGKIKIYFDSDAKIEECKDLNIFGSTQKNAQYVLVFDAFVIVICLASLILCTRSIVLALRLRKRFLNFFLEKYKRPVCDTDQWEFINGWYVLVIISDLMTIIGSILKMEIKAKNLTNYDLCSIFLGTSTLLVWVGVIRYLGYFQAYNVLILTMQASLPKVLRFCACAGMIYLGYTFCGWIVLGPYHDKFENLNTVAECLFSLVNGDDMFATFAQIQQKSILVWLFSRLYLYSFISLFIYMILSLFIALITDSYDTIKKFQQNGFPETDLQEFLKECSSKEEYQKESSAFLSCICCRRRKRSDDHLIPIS", "conditions": "cited from earlier work"}, "TRPML1": {"tested_on": "TRPML1", "conditions": "cited from earlier work"}, "TRPML3": {"biological_target": "T3, TRPML3 (Homo sapiens, UniProt Q8TDD5)", "T3 sequence (Q8TDD5 1-553)": "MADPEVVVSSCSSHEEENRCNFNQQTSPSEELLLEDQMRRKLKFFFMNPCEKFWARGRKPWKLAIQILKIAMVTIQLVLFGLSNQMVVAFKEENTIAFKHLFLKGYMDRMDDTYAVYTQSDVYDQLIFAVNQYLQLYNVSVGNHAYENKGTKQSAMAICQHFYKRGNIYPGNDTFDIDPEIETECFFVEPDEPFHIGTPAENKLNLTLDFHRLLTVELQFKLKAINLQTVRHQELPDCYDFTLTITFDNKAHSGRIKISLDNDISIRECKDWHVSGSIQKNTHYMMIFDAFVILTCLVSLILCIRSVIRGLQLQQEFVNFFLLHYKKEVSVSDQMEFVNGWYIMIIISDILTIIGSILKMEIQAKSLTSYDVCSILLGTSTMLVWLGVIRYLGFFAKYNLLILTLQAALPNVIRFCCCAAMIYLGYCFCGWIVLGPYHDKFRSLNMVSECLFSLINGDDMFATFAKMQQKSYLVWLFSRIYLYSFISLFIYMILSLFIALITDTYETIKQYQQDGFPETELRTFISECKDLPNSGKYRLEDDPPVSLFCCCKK", "conditions": "cited from earlier work"}},
  "data": [
    {"molecule": "CN(C)S(=O)(=O)c1ccc(S(=O)(=O)Nc2ccccc2N2CCN(c3ccc(Cl)cc3F)CC2)cc1", "note": "[Example 8, N1-[2-[4-(4-Chloro-2-fluorophenyl)-1-piperazinyl]phenyl]-N4,N4-dimethylbenzene-1,4-disulfonamide]", "values": [
      {"measurement": "TFEB-nuclear translocation (nuclear to cytosol ratio)", "setting": "TFEB", "value": "sufficient to induce TFEB-nuclear translocation"},
      {"measurement": "UV induced ROS", "setting": "HaCat cells", "value": "significantly reduced"}
    ]},
    {"molecule": "CC1CC(C)(C)N(C(=O)CN2C(=O)c3ccccc3C2=O)c2ccccc21", "note": "(stereo not shown) [ML-SA1]", "values": [
      {"measurement": "concentration needed to effectively activate TRPMLs", "setting": "TRPMLs", "value": "~10", "unit": "µM"},
      {"measurement": "activation of six other related channels", "setting": "[1]", "value": "not"},
      {"measurement": "activation of whole-endolysosome IML-L", "setting": "[2]", "value": "activated"},
      {"measurement": "activation of whole-endolysosome IML-L", "setting": "[3]; ML4 (ML1−/−) human fibroblasts", "value": "not"},
      {"measurement": "activation of endogenous whole-endolysosome IML-L", "setting": "[3]; all mammalian cell types investigated (CHO, Cos-1, HEK293, skeletal muscle, pancreatic β, macrophage cells)", "value": "activated"},
      {"measurement": "[Ca2+]cyt increases", "setting": "ML1-4A", "value": "significant"},
      {"measurement": "activation of whole-cell ITRPML2", "setting": "TRPML2", "value": "activated"},
      {"measurement": "activation of whole-endolysosome IML1 compared with PI(3,5)P2 (1 μM)", "setting": "TRPML1; ML-SA1 10 μM", "value": "comparable"},
      {"measurement": "activation of whole-cell IML1-4A", "setting": "TRPML1; whole-cell", "value": "robustly activated"},
      {"measurement": "activation of whole-endolysosome IML1", "setting": "TRPML1; whole-endolysosome", "value": "robustly activated"},
      {"measurement": "activation of whole-cell ITRPML3", "setting": "TRPML3", "value": "activated"}
    ]}
  ]
}
